According to article PMC10961359, “Targeting hexokinase 2 for oral cancer therapy: structure-based design and validation of lead compounds” (Frontiers in Pharmacology, 2024):
“Also recorded” adds a separate entry of the source. Where two headings read alike, the source gives them in different places.

Tests used:
FaDu oral cancer cells = test: MTT antiproliferative assay, FaDu; assay type: cell-based; settings: for GI50: Homo sapiens, FaDu, read-out: GI50 for FaDu
Procedure: (§1) FaDu cell line was cultured in RPMI-1640 medium containing L-glutamine (300 mg/L) and sodium bicarbonate (2 g/L), while Cal27, HEK293 and HFF-1 cell lines were cultured in DMEM medium containing glucose (4.5 g/L), L-glutamine (584 mg/L) and sodium bicarbonate (3.7 g/L). For gene expression and qPCR studies, RNA isolation was performed using Trizol (Thermo). The reagents and the primer sequences employed for the qPCR assays have been described previously ([Chakraborty et al., 2022]).
(§2) The hits derived from the docking study were sourced from either commercial suppliers or pre-existing compounds within our laboratory or were synthesized anew. The FaDu and Cal27 oral cancer cells were treated with the compounds for 72 h at concentrations of 3, 10, 30, and 100 μM. A post-treatment MTT assay was done to evaluate their antiproliferative activity. Table S2 represents the anti-proliferative and enzyme inhibitory activity of the compounds obtained as hits from the structure-based drug design strategy. […] Consequently, 50 μM of all the hit compounds were evaluated for their HK2 enzyme inhibitory activity. 50 μM of compounds were incubated with HK2 protein and the rate of reaction was assessed in kinetic mode (rate of conversion of NAD to NADH). The choice of 50 μM concentration was based primarily on MTT assays and GI50 calculation. The average GI50 values of the hit compounds against less sensitive FaDu cell line was approximately 50 μM. Considering this information, we reasoned that utilizing a concentration equivalent to the average GI50 would allow us to assess the maximum inhibitory effect of the compounds on HK2 enzyme activity. […] The same compounds have been previously reported by our team to have EGFR phosphorylation inhibitory potential and were coded as H2 (compound 14) and H10 (compound 11) ([Chakraborty et al., 2022]). […] Figures 1C,D show the lead compounds H2 and H10 at the active site of HK2 enzyme interacting via H-bonds with the amino acid residues.

Cal27 oral cancer cells = test: MTT antiproliferative assay, Cal27; assay type: cell-based; settings: Homo sapiens, read-out: GI50 for Cal27
Procedure: as §1, §2

HK2 [1] = target: T1, HK2 (Homo sapiens, UniProt P52789); test: HK2 enzyme inhibition assay (Abcam kit ab211114); assay type: biochemical; settings: read-out: % inhibition of HK2 enzyme activity at 50 µM
T1 construct: purchased Abcam ab211114
T1 sequence (P52789 1-917): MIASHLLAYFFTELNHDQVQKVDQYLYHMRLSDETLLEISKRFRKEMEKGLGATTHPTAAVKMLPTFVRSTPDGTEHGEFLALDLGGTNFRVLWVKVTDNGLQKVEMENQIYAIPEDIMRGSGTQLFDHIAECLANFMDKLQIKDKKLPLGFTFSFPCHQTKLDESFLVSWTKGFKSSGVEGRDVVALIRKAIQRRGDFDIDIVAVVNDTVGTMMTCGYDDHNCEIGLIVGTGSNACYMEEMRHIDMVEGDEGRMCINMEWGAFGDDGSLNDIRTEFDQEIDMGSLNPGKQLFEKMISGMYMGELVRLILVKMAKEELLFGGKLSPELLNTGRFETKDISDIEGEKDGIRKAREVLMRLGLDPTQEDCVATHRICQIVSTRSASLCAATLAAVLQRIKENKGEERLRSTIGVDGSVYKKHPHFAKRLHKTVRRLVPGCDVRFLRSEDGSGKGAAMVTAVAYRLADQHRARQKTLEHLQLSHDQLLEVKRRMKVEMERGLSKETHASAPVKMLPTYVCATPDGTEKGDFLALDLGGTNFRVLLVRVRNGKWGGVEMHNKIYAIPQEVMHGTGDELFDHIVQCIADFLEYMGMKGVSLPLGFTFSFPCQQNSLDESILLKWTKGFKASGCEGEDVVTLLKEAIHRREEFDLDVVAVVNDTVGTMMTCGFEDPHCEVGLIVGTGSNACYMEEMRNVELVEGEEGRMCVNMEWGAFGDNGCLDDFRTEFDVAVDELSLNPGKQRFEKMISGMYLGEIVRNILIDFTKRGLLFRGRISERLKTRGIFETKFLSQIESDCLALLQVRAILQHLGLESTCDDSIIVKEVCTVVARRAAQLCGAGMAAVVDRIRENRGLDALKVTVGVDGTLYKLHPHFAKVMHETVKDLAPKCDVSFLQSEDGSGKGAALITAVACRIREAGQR
Procedure: The HK2 enzyme inhibition assay was performed using an HK2 inhibitor assay kit (Abcam, ab211114) according to the manufacturer’s instructions. Initially, 50 µM compound concentration was used to perform the enzyme activity inhibition studies, after which IC50 of the top leads were determined.
as §2

FaDu cells = test: 2-NBDG glucose uptake assay (flow cytometry), FaDu; assay type: cell-based; settings: 10 μM and 30 μM, 72 h, vs DMSO control
Procedure: (§3) FaDu and Cal27 cells were treated with test compounds (0.2 million cells per treatment) and were incubated for 1 h with 100 μM of 2-NBDG (Invitrogen, N13195), in glucose free medium, washed with ice-cold PBS, and re-suspended in 500 μL of PBS and maintained on ice to perform flow cytometric analyses within 30 min. The mean fluorescent intensity (MFI) readout reflects the amount of fluorescent glucose analog taken up by the cells, providing insight into their glucose uptake capacity. The percent (%) cell population positive for glucose uptake (shown with a right shift of the histogram peaks) were also plotted for both the cell lines. For MMP analysis, cells were incubated with 200 nM of TMRE (Invitrogen, T669) for 30 min. For each measurement, data was collected for 10,000 events using a BD FACS Aria III (Becton Dickinson, San Jose, CA) instrument.
(§4) 2-[N-(7-Nitrobenz-2-oxa-1,3-diaxol-4-yl) amino]-2-deoxyglucose (2-NBDG) uptake into cells happens via glucose transporters and post uptake 2-NBDG gets phosphorylated by hexokinases. Since cancer cells represent higher glycolytic activity, the inhibition of HK2 activity in cancer cells is actively reflected in the inhibition of 2-NBDG uptake ([Hung et al., 2022]; [Li et al., 2022]). […] In this assay, the MFI of intracellular 2-NBDG serves as a quantitative measure of cellular glucose uptake. […] This finding is further supported by the increased % population of 2-NBDG positive cells in Cal27 cells compared to FaDu cells (Figure 3).

Cal27 cells = test: 2-NBDG glucose uptake assay (flow cytometry), Cal27; assay type: cell-based; settings: Cal27, 10 μM and 30 μM, 72 h, vs DMSO control
Procedure: as §3, §4

HK2 [2] = target: T1, HK2; settings: ref Liu and Liu, 2022; read-out: IC50 as reported against HK2; cited from earlier work

O=C(O)C(=O)CBr [Compound 1, 3-Bromo pyruvic acid]
GI50 (FaDu oral cancer cells; 72 h): 23.9 µM
GI50 (Cal27 oral cancer cells; CAL-27, 72 h): 36.4 µM
inhibition at 50 µM (HK2 [1]): 88.2%
2-NBDG MFI (FaDu cells): significant reduction
2-NBDG MFI (Cal27 cells): significant reduction
IC50 (HK2 [2]): < 5 µM

O=CC[C@@H](O)[C@H](O)[C@H](O)CO [Compound 15, 2-Deoxy Glucose]
GI50 (FaDu oral cancer cells; MTT, 72 h treatment, mean ± SEM): > 100 µM
GI50 for FaDu (FaDu oral cancer cells; MTT, 72 h treatment, mean ± SEM, listed as 2-DG): no efficacy; also recorded: limited efficacy
GI50 (Cal27 oral cancer cells; CAL-27, MTT, 72 h treatment, mean ± SEM): 77.6 µM
2-NBDG MFI (FaDu cells): significant reduction
2-NBDG MFI (Cal27 cells): significant reduction
